In brackets after ≈: the same amount, converted by molar mass. Read-outs that look alike come from different tables or passages of the source.
Legend:
[1] = tested on: Mycobacterium tuberculosis strain H37Rv; assay: Test 2: MIC determination against M. tuberculosis, resazurin fluorescence; type: cell-based; details: Test 2, M. tuberculosis H37Rv; for MIC90: read-out: Bacterial activity MIC90; for IC50: read-out: Bacterial activity pMIC50 (converted)
[2] = Metabolic stability in liver microsomes (intrinsic clearance); type: in vitro ADME; details: microsomes
Method: The test compound was incubated under the generic condition (0.5 mg/ml microsomal protein, 1 mM NADPH, 1 mM MgCl2, and 0.1 M phosphate buffer, pH 7.4, 37° C.) at a defined substrate concentration (typically 1 μM) in liver microsomes of selected species across a time course (typically 0, 5, 10, 20, 40 and 60 minutes) at Cyprotex (Cheshire, UK). The liver microsomes, buffer and test compound will be pre-incubated for 5 minutes. The addition of the co-factor NADPH will initiate the reaction and the reaction was terminated by addition of acetonitrile. The samples were centrifuged prior to analysis by LC-MS/MS analysis. The relative amount of parent compound remaining in the active incubations vs. the control incubations (t=0 mins) for each compound was measured by peak area comparison. The in vitro metabolic half-life (t1/2) was calculated using the slope of the log-linear regression from the percentage parent compound remaining versus time relationship (κ), The in vitro intrinsic clearance (Cl^int) (μl/min/mg microsomal protein) was calculated using the in vitro metabolic half-life, incubation volume and the weight of microsomal protein in the incubation.

[3] = HTChem stab assay (chemical stability in buffer pH2, pH4 and pH7 vs DMSO reference); type: physicochemical
Method: HTChem stab assay was used to assess the chemical stability of the compounds. 72 h stirring at rt in a buffer pH2, pH4 and pH7 vs a reference DMSO solution. HTChem stab assay is based on the handbook of Pharmaceutical Stress Testing, Predicting Drug Degradation, second edition, authors Baertschi, Alsante, Reed ISBN 978-143980179-6.
Compounds were plated (1 μl 10 mM DMSO stock in 96 well plate (DMSO control+3 pH conditions), one plate per condition).
200 μL of respectively DMSO, Buffer/DMSO mix pH2, Buffer/DMSO mix pH4 and Buffer/DMSO mix pH7 was added.
After 72 h shaking (300 rpm) at room temperature the samples were analysed by LC/UV/MS. Chromatograms of samples (stability conditions) were compared with the chromatograms of control sample (DMSO). Extra peaks were flagged and identified by mass spectrometry. Sample purity (reference included) were reported.
• pH3 buffer: For 11; weigh 4.14 g NaH2PO4·H2O, add 600 ml H2O, add H3PO4 to pH3, add H2O to 1000 ml. Filter over 0.2 μm and store at 4° C. Expires after 30 days. • pH6 buffer: For 1 l; weigh 4.14 g NaH2PO4·H2O, add 600 ml H2O, add 1N NaOH to pH6, add H2O to 1000 ml. Filter over […] and store at 4° C. Expires after 30 days.
• pH2 Buffer/DMSO (StabSolvent): mix 2 parts of HCl 0.1N with 1 part of DMSO • pH4 Buffer/DMSO (StabSolvent): mix 2 parts of buffer pH3 with 1 part of DMSO • pH7 Buffer/DMSO (StabSolvent): mix 2 parts of buffer pH6 with 1 part of DMSO measure pH prior to use.
Instrument: Acquity UPLC; Column: Acquity HSS T3, 50 mm length×2.1 mm i.d., 1.8 μm particle size. Detectors: PDA (250-350 nm) and SQD2 (90-1500m/z). Mobile phase A: 0.1% Formic acid in water; Mobile phase B: 0.1% Formic acid in Acetonitrile.
Injection volume: 5 μL, flow rate 0.6 mL/min.
Data processing including peak integration and identification was done with Waters OpenLynx software.

[4] = Mycobacterium tuberculosis, H37RV

SMILES	Bacterial activity pMIC50 [1]	MIC90 [1]	Metabolic Stability (liver microsome intrinsic clearance) Clearance (mouse, μl/min./mg protein) ([2]; mouse)	Metabolic Stability Half life (mouse, min.) ([2]; mouse)	MIC90 [1, 4]	IC50 [1, 4]	Chemical stability data, Vehicle DMSO ([3]; 72 h, 50 µM)	Chemical stability data, Buffer pH2 ([3]; 72 h, 50 µM, pH 2)	Chemical stability data, Buffer pH4 ([3]; 72 h, 50 µM, pH 4)	Chemical stability data, Buffer pH7 ([3]; 72 h, 50 µM, pH 7)	other results
CCc1nc2ncc(C)cn2c1C(=O)NCc1ccc(-c2nc3n(n2)CCC(C(F)(F)F)C3)cc1 (single isomer, unassigned) [Compound 1b]	8.576	0.007 µM (≈ 0.00338 µg/mL)	7.8 μl/min./mg protein	2.97 h	–	–	–	–	–	–	Metabolic Stability (liver microsome intrinsic clearance) Clearance (human, μl/min./mg protein) ([2]; human): 7.81 μl/min./mg protein; Metabolic Stability Half life (human, min.) ([2]; human): 2.97 h
CCc1nc2ncccn2c1C(=O)NCc1ccc(-c2nc3n(n2)CC[C@@H](C(F)(F)F)C3)c(F)c1 (single isomer, unassigned) [Compound 73]	7.18	0.35 µM (≈ 0.171 µg/mL)	<7.7 μl/min./mg protein	>3 h	–	–	–	–	–	–	–
CCc1nc2ncccn2c1C(=O)NCc1ccc(-c2nc3n(n2)CC[C@H](C(F)(F)F)C3)c(F)c1 (single isomer, unassigned) [Compound 74]	6.94	>0.5 µM	<7.7 μl/min./mg protein	>3 h	–	–	–	–	–	–	–
CCc1nc2n(c1C(=O)NCc1ccc(-c3nc4n(n3)CC[C@H](C(F)(F)F)C4)c(F)c1)CCCC2 (single isomer, unassigned) [Compound 77]	7.6	0.098 µM (≈ 0.0481 µg/mL)	26.1 μl/min./mg protein	0.885 h	–	–	–	–	–	–	–
CCc1nc2ncc(C)cn2c1C(=O)NCc1ccc(-c2cn3c(n2)CC(C(F)(F)F)CC3)cc1 (stereo not shown) [Compound 3ab]	–	–	–	–	0.009 µM (≈ 0.00434 µg/mL)	3550 pM	–	–	–	–	half-life at 1 µM ([2]; human, pH 7.4, Metabolic Stability Half life (human, min.)): 1.54 h; microsomal CLint at 1 µM ([2]; human, pH 7.4, human liver microsomes, read-out: Metabolic Stability (liver microsome intrinsic clearance) Clearance (human, μl/min./mg protein)): 15 µL/min/mg; half-life at 1 µM ([2]; mouse, pH 7.4, Metabolic Stability Half life (mouse, min.)): 1.7 h; microsomal CLint at 1 µM ([2]; mouse, pH 7.4, mouse liver microsomes, read-out: Metabolic Stability (liver microsome intrinsic clearance) Clearance (mouse, μl/min./mg protein)): 13.6 µL/min/mg
CCc1nc2ncc(CN)cn2c1C(=O)NCc1ccc(-c2nc3n(n2)CCC(C(F)(F)F)C3)cc1 (stereo not shown) [Compound 16ab]	–	–	–	–	–	> 500000 pM	77%	74%	74%	80%	–
CCc1nc2ncc(C)cn2c1C(=O)NCc1ccc(-c2nc3n(c2C)CCC(C(F)(F)F)C3)cc1 (stereo not shown) [Compound 19ab]	–	–	–	–	0.047 µM (≈ 0.0233 µg/mL)	11500 pM	98%	98%	98%	98%	–
CCc1nc2ncc(C)cn2c1C(=O)NCc1ccc(-c2nn3c(c2C)CC(C(F)(F)F)CC3)cc1 (stereo not shown) [Compound 21ab]	–	–	–	–	0.011 µM (≈ 0.00546 µg/mL)	3490 pM	100%	100%	100%	100%	–
CCc1nc2ncc(C)cn2c1C(=O)NCc1ccc(-c2nc3n(n2)CCC(C2CC2)C3)cc1 (stereo not shown) [Compound 27ab]	–	–	–	–	0.014 µM (≈ 0.00638 µg/mL)	4610 pM	100%	100%	100%	100%	–
CCCC1CCn2nc(-c3ccc(CNC(=O)c4c(CC)nc5ncc(C)cn45)cc3)nc2C1 (stereo not shown) [Compound 28ab]	–	–	–	–	0.011 µM (≈ 0.00503 µg/mL)	3660 pM	100%	100%	100%	100%	–
CCc1nc2ncc(C)cn2c1C(=O)NCc1ccc(-c2nc3n(n2)CCCC3)c(F)c1 [Compound 32ab]	–	–	–	–	0.248 µM (≈ 0.108 µg/mL)	79800 pM	100%	100%	100%	100%	–
CCc1nc2ncc(C)cn2c1C(=O)NCc1ccc(-c2nc3n(n2)CCC(OC(F)(F)F)C3)cc1 (stereo not shown) [Compound 33ab]	–	–	–	–	0.039 µM (≈ 0.0195 µg/mL)	12700 pM	100%	64%	100%	100%	–
O=C(NCc1ccc(-c2cn3c(n2)CC(C(F)(F)F)CC3)nc1)c1c(C(F)(F)F)nc2ccccn12 (stereo not shown) [Compound 36ab]	<6.301	–	–	–	–	–	–	–	–	–	Chemical stability data, Buffer pH2 ([3]; buffer pH2/DMSO, 72 h stirring at rt): 100%; Chemical stability data, Buffer pH4 ([3]; buffer pH4/DMSO, 72 h stirring at rt): 100%; Chemical stability data, Buffer pH7 ([3]; buffer pH7/DMSO, 72 h stirring at rt): 100%; Chemical stability data, Vehicle DMSO ([3]; reference DMSO solution, 72 h stirring at rt): 100%

From patent publication US20250034171A1, “IMIDAZOPYRIDINE AMIDES AND RELATED COMPOUNDS FOR USE IN THE TREATMENT OF BACTERIAL INFECTIONS” (priority 2021, published 2025)
